Assay [1] relates to Toll-like receptor (TLR) 2. In words: TLR2 expression in RAW 264.7 by Western blotting. The assay is classed as cell-based, mouse. The following applies: vardenafil 5 μM, EGCG 10 μM added after 3 hours, 24 hours, untreated = 100. The procedure:
(§1) A mouse macrophage cell line, RAW 264.7, was seeded in a 5-mL dish at 1×10^5 cells/mL and was pre-cultured in a DMEM medium supplemented with 1% FCS for 24 hours. Subsequently, vardenafil was added thereto at a concentration of 5 μM. After 3 hours, EGCG was added thereto at a concentration of 0 μM or 10 μM. After 24 hours, the cells were collected, and the expressions of Toll-like receptor (TLR) 2 and TLR 4 were measured by Western blotting.

The subject of a further assay is TLR 4. In words: TLR4 expression in RAW 264.7 by Western blotting. Type of assay: cell-based, mouse. The following applies: vardenafil 5 μM, EGCG 10 μM added after 3 hours, 24 hours, untreated = 100. The procedure:
as §1
(A western blot detects proteins with antibodies after separation by electrophoresis.)

The values below come from US20160000750A1, “COMBINATION OF EGCG OR METHYLATED EGCG AND A PDE INHIBITOR” (KYUSHU UNIVERSITY, NATIONAL UNIVERSITY CORPORATION, priority 2010, published 2016).

Molecules are shown by their SMILES.

`CCCc1nc(C)c2c(=O)[nH]c(-c3cc(S(=O)(=O)N4CCN(CC)CC4)ccc3OCC)nn12` [vardenafil]: in assay [1], the “TLR2 expression level(%)” value came to 112%. For the same compound, the “TLR4 expression level(%)” value in the assay with TLR 4 is given as 112%.
